Experimental data published in patent US20240209004A1, “BORIC ACID DERIVATIVE ACTING AS Beta-LACTAMASE INHIBITOR” (TUOJIE BIOTECH (SHANGHAI) CO., LTD., priority 2021, published 2024).
Where two headings read alike, the source gives them in different places.

Experiments:
[1] = Single intravenous administration exposure, pharmacokinetics (Test Example 4); assay type: in vivo, ICR mice; settings: ICR mice, single intravenous injection, plasma; for AUC(0-t) / AUC(0-inf) / Cmax / Tmax: mouse, in vivo; for AUC(0-t): read-out: AUC0-t; for AUC(0-inf): read-out: AUCinf; for Cmax: read-out: Cmax; for Tmax: read-out: Tmax
Description: The solutions were prepared on the day of administration and stored at 4° C.
Single intravenous injections were administered to ICR mice, which were grouped as follows. Blood was collected from the saphenous vein or the fundus venous plexus at 0.083 h, 0.25 h, 0.5 h, 1 h, 2 h, 4 h, 6 h and 12 h after administration (about 0.1 mL/time point). A biological analysis method was developed to determine plasma concentrations at different time points, and related pharmacokinetic parameters were calculated.

[2] = test system: cefepime-resistant Klebsiella pneumoniae expressing different types of β-lactamases; assay: microbe, parasite or virus in culture; assay type: cell-based; settings: for MIC: Klebsiella pneumoniae; for MIC, Cefepime + compound (8 ug/ml): inhibitor at 8 ug/ml
Description: (§1) The biosafety cabinet was sterilized with ultraviolet light for 30 min. Glycerol tubes were taken out of a −80° C. freezer, and streaks were gently formed in the glycerol tubes using inoculating loops. Bacteria were inoculated onto MHIIA solid plates. The plates were incubated overnight in a 37° C. incubator.
30 μL of compound stock solution was added to column 1 of a 96-well v-bottom plate, and DMSO was added to columns 2-10. Subsequently, 15 μL was transferred from column 1 to column 2 using a pipette and well mixed gently, and then 15 μL of solution was transferred from column 2 to column 3: the serial dilution process proceeded to column 10 (200×β-lactamase inhibitor working solutions were prepared). The antibiotic was diluted with a corresponding solvent to form a 1.6 mg/mL solution.

[3] = test system: cefepime-resistant Escherichia coli; assay: MIC in combination with cefepime for drug-resistant bacteria (Test Example 2); assay type: cell-based; settings: for MIC: Escherichia coli, with CPM 8 μg/mL
Description: as §1
(§2) 30 μL of compound stock solution was added to column 1 of a 96-well v-bottom plate, and DMSO was added to columns 2-10. Subsequently, 15 μL was transferred from column 1 to column 2 using a pipette and well mixed gently, and then 15 μL of solution was transferred from column 2 to column 3; the serial dilution process proceeded to column 10 (200×β-lactamase inhibitor working solutions were prepared). The antibiotic was diluted with a corresponding solvent to form a 1.6 mg/mL solution.

[4] = test system: cefepime-resistant Acinetobacter baumannii; assay: as above; assay type: cell-based; settings: for concentration for achieving a bacteriostatic effect where the CPM MIC is fixed at 8 μg/mL: with CPM 8 μg/mL
Description: as §1, §2

[5] = test system: cefepime-resistant Pseudomonas aeruginosa; assay: as above; assay type: cell-based
Description: as §1, §2

[6] = test system: cefepime-resistant Klebsiella pneumoniae; assay: as above; assay type: cell-based; settings: for MIC: Klebsiella pneumoniae, with CPM 8 μg/mL
Description: as §1, §2

[7] = summary in words of Test Example 2

`O=C([O-])c1c2c(cc3c1O[B-](O)(O)[C@@H]1C[C@H]31)OCCO2.[Na+].[Na+]` [Compound 1-1-Na] showed a t½z ([1]; 10 mg/kg) of 115 min, a t½z ([1]; 100 mg/kg) of 178 min and an AUC(0-t) ([1]; 10 mg/kg) of 211 µg·h/mL. For the same molecule, the AUC(0-inf) ([1]; 10 mg/kg) was 213 µg·h/mL, the Cmax ([1]; 10 mg/kg) was 146 µg/mL and the Tmax ([1]; 10 mg/kg) was 4.98 min. The AUC(0-t) ([1]; 100 mg/kg) was 1400 µg·h/mL, the AUC(0-inf) ([1]; 100 mg/kg) was 1540 µg·h/mL and the Cmax ([1]; 100 mg/kg) was 607 µg/mL. The Tmax ([1]; 100 mg/kg) was 4.98 min, the MIC ([2]; ATCCBAA1705, read-out: MIC, single substance (1-1-Na, QPX7728, CPM), strain ATCC BAA-1705, KPC-2, TEM, SHV, Class A) was greater than 128 µg/mL and the MIC ([2]; ATCCBAA1898, read-out: MIC, single substance (1-1-Na, QPX7728, CPM), strain ATCC BAA-1898, KPC-2, Class A) was greater than 128 µg/mL. The MIC ([2]; ATCCBAA1899, read-out: MIC, single substance (1-1-Na, QPX7728, CPM), strain ATCC BAA-1899, KPC-2, Class A) was 64 µg/mL, the MIC ([2]; ATCCBAA2343, read-out: MIC, single substance (1-1-Na, QPX7728, CPM), strain ATCC BAA-2343, KPC, Class A) was greater than 128 µg/mL and the MIC ([2]; ATCCBAA2470, read-out: MIC, single substance (1-1-Na, QPX7728, CPM), strain ATCC BAA-2470, NDM-1, Class B) was 64 µg/mL. For the same molecule, the MIC ([2]; read-out: MIC, single substance (1-1-Na, QPX7728, CPM), strain ARLG-1127 (Urine), KPC, KPC-3, TEM, TEM-1, Class A) was greater than 128 µg/mL, the MIC ([2]; read-out: MIC, single substance (1-1-Na, QPX7728, CPM), strain ARLG-1195, CTM-1 group, SHV, NDM, Class A, B) was greater than 128 µg/mL and the MIC ([2]; read-out: MIC, single substance (1-1-Na, QPX7728, CPM), strain ARLG-1196, CTM-1 group, SHV, NDM, TEM, Class A, B) was 128 µg/mL. For the same molecule, the “MIC, Cefepime + compound (8 ug/ml)” value ([2]; strain ARLG-1127 (Urine), KPC, KPC-3, TEM, TEM-1, Class A) was 0.25 µg/mL, the “MIC, Cefepime + compound (8 ug/ml)” value ([2]; strain ARLG-1195, CTM-1 group, SHV, NDM, Class A, B) was no more than 0.125 µg/mL and the “MIC, Cefepime + compound (8 ug/ml)” value ([2]; strain ARLG-1196, CTM-1 group, SHV, NDM, TEM, Class A, B) was no more than 0.125 µg/mL. The “MIC, Cefepime + compound (8 ug/ml)” value ([2]; strain ATCC BAA-1705, KPC-2, TEM, SHV, Class A) was less than 0.125 µg/mL, the “MIC, Cefepime + compound (8 ug/ml)” value ([2]; strain ATCC BAA-1898, KPC-2, Class A) was less than 0.125 µg/mL and the “MIC, Cefepime + compound (8 ug/ml)” value ([2]; strain ATCC BAA-1899, KPC-2, Class A) was no more than 0.125 µg/mL. The “MIC, Cefepime + compound (8 ug/ml)” value ([2]; strain ATCC BAA-2343, KPC, Class A) was 0.25 µg/mL, the “MIC, Cefepime + compound (8 ug/ml)” value ([2]; strain ATCC BAA-2470, NDM-1, Class B) was no more than 0.125 µg/mL and the MIC ([3]; read-out: concentration for achieving a bacteriostatic effect where the CPM MIC is fixed at 8 μg/mL, strain FDA-CDC AR-BANK#0055) was 1 µg/mL. The MIC ([3]; read-out: concentration for achieving a bacteriostatic effect where the CPM MIC is fixed at 8 μg/mL, strain FDA-CDC AR-BANK#0114) was 0.0312 µg/mL, the MIC ([3]; read-out: concentration for achieving a bacteriostatic effect where the CPM MIC is fixed at 8 μg/mL, strain FDA-CDC AR-BANK#0370) was 1 µg/mL and the MIC ([3]; read-out: concentration for achieving a bacteriostatic effect where the CPM MIC is fixed at 8 μg/mL, strain FDA-CDC AR-BANK#0371) was no more than 0.0156 µg/mL. For the same molecule, the “restoring to cefepime antibacterial activity against cefepime-resistant Escherichia coli” value [3, 7] was “significantly restore to cefepime antibacterial activity”, the MIC ([4]; Acinetobacter baumannii, read-out: concentration for achieving a bacteriostatic effect where the CPM MIC is fixed at 8 μg/mL) was greater than 16 µg/mL and the “concentration for achieving a bacteriostatic effect where the CPM MIC is fixed at 8 μg/mL” value ([4]; strain FDA-CDC AR-BANK#0035) was greater than 16 µg/mL. For the same molecule, the “concentration for achieving a bacteriostatic effect where the CPM MIC is fixed at 8 μg/mL” value ([4]; strain FDA-CDC AR-BANK#0078) was greater than 16 µg/mL, the MIC ([5]; read-out: concentration for achieving a bacteriostatic effect where the CPM MIC is fixed at 8 μg/mL, strain FDA-CDC AR-BANK#0246, with CPM 8 μg/mL) was greater than 16 µg/mL and the MIC ([5]; read-out: concentration for achieving a bacteriostatic effect where the CPM MIC is fixed at 8 μg/mL, strain FDA-CDC AR-BANK#0439, with CPM 8 μg/mL) was greater than 16 µg/mL. It also gave an MIC ([5]; read-out: concentration for achieving a bacteriostatic effect where the CPM MIC is fixed at 8 μg/mL, strain FDA-CDC AR-BANK#0441, with CPM 8 μg/mL) of 8 µg/mL, an MIC ([5]; read-out: concentration for achieving a bacteriostatic effect where the CPM MIC is fixed at 8 μg/mL, strain FDA-CDC AR-BANK#0444, with CPM 8 μg/mL) of 16 µg/mL and an MIC ([6]; read-out: concentration for achieving a bacteriostatic effect where the CPM MIC is fixed at 8 μg/mL, strain FDA-CDC AR-BANK#0003) of 0.125 µg/mL. For the same molecule, the MIC ([6]; read-out: concentration for achieving a bacteriostatic effect where the CPM MIC is fixed at 8 μg/mL, strain FDA-CDC AR-BANK#0076) was 0.25 µg/mL, the MIC ([6]; read-out: concentration for achieving a bacteriostatic effect where the CPM MIC is fixed at 8 μg/mL, strain FDA-CDC AR-BANK#0080) was 2 µg/mL and the MIC ([6]; read-out: concentration for achieving a bacteriostatic effect where the CPM MIC is fixed at 8 μg/mL, strain FDA-CDC AR-BANK#0126) was no more than 0.0156 µg/mL. For the same molecule, the MIC ([6]; read-out: concentration for achieving a bacteriostatic effect where the CPM MIC is fixed at 8 μg/mL, strain FDA-CDC AR-BANK#0158) was 2 µg/mL and the “restoring to cefepime antibacterial activity against cefepime-resistant Klebsiella pneumoniae” value [6, 7] was “significantly restore to cefepime antibacterial activity”.
